Here are results for 10 compounds from patent publication US4605614A, “Method for measuring plasmin” (Nitto Boseki Co., Ltd., priority 1981, dated 1986).

What is called Km is the concentration of substrate that gives half-maximal velocity.

The structures appear in SMILES notation. Where a SMILES comes first, the peptide text is derived from it.

Test [1] has as its target T1, plasmin (pig) (Sus scrofa, UniProt P06867). As to the kind of experiment: Km, Vmax and Vmax/Km of substrates for plasmin (pig). The conditions noted are these: for Vmax (× 10^-6) [mole/min/Cu]: Porcine Plasmin, comparison table in description; for V/Km (× 10^-3) / Vmax (× 10^7): TABLE 1, PNA substrates, plasmin (pig); for Vmax (× 10^7): 405 nm; for Relative ratio: TABLE 1, V/Km of each sample divided by that of S2251. It is filed as biochemical, Porcine (pig).

For the next test, the target named is Thrombin (TH) (Bos taurus, UniProt P00735). It is filed as biochemical, Cow. The conditions noted are these: TABLE 3, PNA substrates; So = 0.54 mmole/l; pH 8.4; 37° C., 10 minutes; 1.0 NIH/ml.
Chain of Thrombin (TH) (P00735 44-625): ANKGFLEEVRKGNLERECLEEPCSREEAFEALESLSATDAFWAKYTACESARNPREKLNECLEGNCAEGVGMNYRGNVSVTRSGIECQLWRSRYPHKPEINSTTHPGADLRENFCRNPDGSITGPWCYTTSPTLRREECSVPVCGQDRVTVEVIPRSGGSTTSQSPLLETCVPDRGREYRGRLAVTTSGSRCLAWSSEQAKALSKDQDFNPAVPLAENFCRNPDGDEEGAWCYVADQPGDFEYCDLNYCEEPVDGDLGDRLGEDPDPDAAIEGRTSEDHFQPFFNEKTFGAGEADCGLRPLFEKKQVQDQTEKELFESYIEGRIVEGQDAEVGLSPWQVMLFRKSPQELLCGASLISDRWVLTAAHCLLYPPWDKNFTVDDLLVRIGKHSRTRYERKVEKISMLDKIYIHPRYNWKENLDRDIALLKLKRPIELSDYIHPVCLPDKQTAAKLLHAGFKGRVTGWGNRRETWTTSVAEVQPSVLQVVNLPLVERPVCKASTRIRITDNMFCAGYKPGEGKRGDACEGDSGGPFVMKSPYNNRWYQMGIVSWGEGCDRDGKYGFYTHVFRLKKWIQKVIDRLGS
Another test addresses Plasmin (PL) (Sus scrofa, UniProt P06867). The test is classed as biochemical, Pig. As to conditions: TABLE 3, PNA substrates; So = 0.54 mmole/l; pH 7.4; 37° C., 10 minutes; 0.32 CU/ml.
In another test the target is Kallikrein (KL) (Sus scrofa, UniProt P00752). The test is classed as biochemical, Pig. As to conditions: TABLE 3, PNA substrates; So = 0.54 mmole/l; pH 7.9; 37° C., 10 minutes; 1.0 BAEE-U/ml.
Chain of Kallikrein (KL) (P00752 8-246): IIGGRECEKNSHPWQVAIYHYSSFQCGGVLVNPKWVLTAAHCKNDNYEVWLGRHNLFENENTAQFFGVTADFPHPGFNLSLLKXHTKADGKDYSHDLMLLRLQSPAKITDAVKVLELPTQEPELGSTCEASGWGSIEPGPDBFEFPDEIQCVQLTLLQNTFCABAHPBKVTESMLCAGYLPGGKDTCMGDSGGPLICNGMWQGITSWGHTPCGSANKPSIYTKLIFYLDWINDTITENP
The target in another test is Factor-Xa (FXa) (Bos taurus, UniProt P00743). It is filed as biochemical, Cow. The conditions noted are these: TABLE 3, PNA substrates; So = 0.54 mmole/l; pH 8.4; 37° C., 10 minutes; 0.4 U/ml.
Chain of Factor-Xa (FXa) (P00743 41-180): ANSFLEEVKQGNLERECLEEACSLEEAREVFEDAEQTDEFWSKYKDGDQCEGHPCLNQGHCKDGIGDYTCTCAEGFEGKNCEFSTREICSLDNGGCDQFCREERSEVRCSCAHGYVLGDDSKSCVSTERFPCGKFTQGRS
Chain of Factor-Xa (FXa) (P00743 234-492): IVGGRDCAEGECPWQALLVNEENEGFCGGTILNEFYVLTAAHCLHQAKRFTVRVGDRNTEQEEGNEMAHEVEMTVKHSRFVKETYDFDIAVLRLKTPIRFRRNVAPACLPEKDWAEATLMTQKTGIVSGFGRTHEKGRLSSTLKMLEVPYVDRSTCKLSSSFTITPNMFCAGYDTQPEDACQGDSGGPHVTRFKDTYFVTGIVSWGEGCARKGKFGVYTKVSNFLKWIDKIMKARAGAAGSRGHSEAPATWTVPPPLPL
A further test has as its target Urokinase (UK) (Homo sapiens, UniProt P00749). It is filed as biochemical. As to conditions: TABLE 3, PNA substrates; So = 0.54 mmole/l; pH 8.2; 37° C., 10 minutes; 1000 IU/ml.
Test [2] deals with T1, plasmin (pig). As to conditions: prior substrate; enzyme not stated in the sentence (plasmin substrates); cited from earlier work.
Test [3] concerns coagulation and linear dissolution related enzymes such as thrombin, Factor Xa, UK. The conditions noted are these: prior substrate, cited from earlier work.
A further test has as its system Human Thrombin. As to conditions: read-out: Michaelis's constant (Km); cited from earlier work.
The test system of another test is Human Plasmin. As to conditions: read-out: Michaelis's constant (Km); cited from earlier work.

T1 sequence (P06867 97-809): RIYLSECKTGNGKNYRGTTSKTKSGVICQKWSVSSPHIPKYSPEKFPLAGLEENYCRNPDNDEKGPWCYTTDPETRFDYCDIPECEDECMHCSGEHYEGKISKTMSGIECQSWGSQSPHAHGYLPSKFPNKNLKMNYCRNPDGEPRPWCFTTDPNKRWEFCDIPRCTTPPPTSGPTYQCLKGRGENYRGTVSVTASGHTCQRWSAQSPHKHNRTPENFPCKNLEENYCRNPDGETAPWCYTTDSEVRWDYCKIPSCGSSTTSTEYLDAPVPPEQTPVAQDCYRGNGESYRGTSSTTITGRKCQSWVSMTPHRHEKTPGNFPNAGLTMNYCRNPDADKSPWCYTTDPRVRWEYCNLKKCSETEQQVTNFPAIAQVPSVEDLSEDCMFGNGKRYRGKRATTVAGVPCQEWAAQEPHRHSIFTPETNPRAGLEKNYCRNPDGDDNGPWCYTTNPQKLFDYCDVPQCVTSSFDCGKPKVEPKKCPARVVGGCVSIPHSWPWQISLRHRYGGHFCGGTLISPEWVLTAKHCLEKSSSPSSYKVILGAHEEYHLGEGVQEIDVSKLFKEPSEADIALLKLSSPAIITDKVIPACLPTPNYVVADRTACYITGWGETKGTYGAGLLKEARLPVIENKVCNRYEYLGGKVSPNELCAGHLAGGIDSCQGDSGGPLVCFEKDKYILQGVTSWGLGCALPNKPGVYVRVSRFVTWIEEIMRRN
Chain of Plasmin (PL) (P06867 97-809): as above
Method for Factor-Xa (FXa): (§1) The specificities of the novelly synthesized substrates were tested by reacting them with various enzymes respectively.
(§2) (1) Substrate solution concentration: 35 mmole/liter H2 O
(§3) (2) Buffer: Tris-hydrochloric acid buffer 50 mmole/l, NaCl 150 mmole/l (0.875%) was employed, and the pH for reaction was as follows depending on the enzyme.
(§4) 2,6-Xylenol 7.0 mmole+NaIO4 1.5 mmole/0.2N KOH
(§5) 0.5 ml of the buffer solution and 0.05 ml of the enzyme reagent were taken into a silicon-treated hard glass test tube or a plastic test tube, and preheated in a constant temperature bath at 37° C. for 5 minutes. Thereafter, 0.1 ml of the substrate solution was added to effect the enzymatic reaction at 37° C. for 10 minutes. Exactly after 10 minutes, 2.5 ml of the reaction terminating solution or the terminating and color developing reagent solution was added to terminate the enzymatic reaction, and after allowing to stand at 25° C. for 10 minutes, the absorbance at 405 nm or 645 nm was measured, in which [drawing 49]
Method for Plasmin (PL): as §2, §3
Plasmin Pig Sigma (U.S.A.)
as §5
Method for Thrombin (TH): as §1, §2, §3, §4, §5
Method for Urokinase (UK): as §1, §2, §3, §4, §5

With `Cc1ccc(S(=O)(=O)NCC(=O)N2CCC[C@H]2C(=O)N[C@@H](CCCCN)C(=O)Nc2ccc([N+](=O)[O-])cc2)cc1` [CHR-PL, Tos-Gly-Pro-Lys-PNA, reference compound] (HELM PEPTIDE1{[Cc1ccc(S(=O)(=O)[*:2])cc1].G.P.K.[O=[N+]([O-])c1ccc(N[*:1])cc1]}$$$$V2.0), on plasmin (pig) [1], the “Vmax (× 10^-6) [mole/min/Cu]” value is 6.0 × 10^-6 mole/min/Cu, the “V/Km (× 10^-3)” value is 21.628 × 10^-3, the “Vmax (× 10^7)” value is 60.067 × 10^7 and the Relative ratio was 1.889. The “Selectivity TH, absorbance (O.D.) at 405 nm” value (“Selectivity TH, absorbance” for short) on Thrombin (TH) is recorded as 0.057 O.D. Besides, at Plasmin (PL), the “Selectivity PL, absorbance (O.D.) at 405 nm” value (“Selectivity PL, absorbance” for short) amounted to 0.647 O.D. Further, the “Selectivity KL, absorbance (O.D.) at 405 nm” value (“Selectivity KL, absorbance” for short) on Kallikrein (KL) amounted to 0.004 O.D. Moreover, the “Selectivity FXa, absorbance (O.D.) at 405 nm” value (“Selectivity FXa, absorbance” for short) at Factor-Xa (FXa) turned out to be 0.026 O.D. Also, the “Selectivity UK, absorbance (O.D.) at 405 nm” value (from here on “Selectivity UK, absorbance”) on Urokinase (UK) came out at 0.069 O.D. Further, the “Km value compared with S-2251 (in words)” value on plasmin (pig) [2] is “smaller than that of S-2251”. In addition, the “reaction with coagulation and linear dissolution related enzymes such as thrombin, Factor Xa, UK” value in test [3] (in words) was “considerably reacts”.

Turning to `NCCCC[C@H](NC(=O)[C@H](Cc1ccccc1)NC(=O)[C@H](N)CCC(=O)NCCCc1ccccc1)C(=O)Nc1ccc([N+](=O)[O-])cc1` [NPN-5], on plasmin (pig) [1], the “Vmax (× 10^7)” value is reported as 24.892 × 10^7 and the Relative ratio amounted to 5.534. Further, the “Selectivity TH, absorbance” value on Thrombin (TH) is 0 O.D. Moreover, the “Selectivity PL, absorbance” value at Plasmin (PL) came out at 0.525 O.D. In addition, the “Selectivity KL, absorbance” value at Kallikrein (KL) is listed as 0.014 O.D. Further, the “Selectivity FXa, absorbance” value at Factor-Xa (FXa) is on record as 0.005 O.D. Also, the “Selectivity UK, absorbance” value on Urokinase (UK) came to 0.001 O.D.

Take `NCCCC[C@H](NC(=O)[C@H](Cc1ccccc1)NC(=O)[C@H](N)CCC(=O)NCCCCc1ccccc1)C(=O)Nc1ccc([N+](=O)[O-])cc1` [NPN-6]: on plasmin (pig) [1], the “Vmax (× 10^7)” value is recorded as 28.209 × 10^7 and the Relative ratio is given as 5.427. Moreover, the “Selectivity TH, absorbance” value on Thrombin (TH) amounted to 0 O.D. The “Selectivity PL, absorbance” value on Plasmin (PL) was found to be 0.646 O.D. Moreover, the “Selectivity KL, absorbance” value on Kallikrein (KL) is listed as 0.018 O.D. Moreover, the “Selectivity FXa, absorbance” value on Factor-Xa (FXa) is reported as 0.003 O.D. At Urokinase (UK), the “Selectivity UK, absorbance” value is given as 0.012 O.D.

As for `Cc1ccc(CCNC(=O)CC[C@@H](N)C(=O)N[C@@H](Cc2ccccc2)C(=O)N[C@@H](CCCCN)C(=O)Nc2ccc([N+](=O)[O-])cc2)cc1` [NPN-7], at plasmin (pig) [1], the “Vmax (× 10^7)” value is reported as 20.908 × 10^7 and the Relative ratio was 4.638. For the same compound, the “Selectivity TH, absorbance” value on Thrombin (TH) is given as 0.001 O.D. On Plasmin (PL), the “Selectivity PL, absorbance” value was determined as 0.427 O.D. In addition, at Kallikrein (KL), the “Selectivity KL, absorbance” value was determined as 0.011 O.D. Besides, on Factor-Xa (FXa), the “Selectivity FXa, absorbance” value is 0.008 O.D. Further, the “Selectivity UK, absorbance” value on Urokinase (UK) turned out to be 0.002 O.D.

Take `NCCCC[C@H](NC(=O)[C@H](Cc1ccccc1)NC(=O)[C@H](N)CCC(=O)OCCc1ccccc1)C(=O)Nc1ccc([N+](=O)[O-])cc1` [NPN-8]: on plasmin (pig) [1], the “Vmax (× 10^7)” value is given as 28.542 × 10^7 and the Relative ratio was determined as 8.019. On Thrombin (TH), the “Selectivity TH, absorbance” value is listed as 0 O.D. Moreover, the “Selectivity PL, absorbance” value at Plasmin (PL) is 0.181 O.D. Moreover, at Kallikrein (KL), the “Selectivity KL, absorbance” value is reported as 0.014 O.D. In addition, the “Selectivity FXa, absorbance” value at Factor-Xa (FXa) amounted to 0.005 O.D. Moreover, the “Selectivity UK, absorbance” value at Urokinase (UK) was determined as 0.003 O.D.

Turning to `Cc1ccc(CCOC(=O)CC[C@@H](N)C(=O)N[C@@H](Cc2ccccc2)C(=O)N[C@@H](CCCCN)C(=O)Nc2ccc([N+](=O)[O-])cc2)cc1` [NPN-9], at plasmin (pig) [1], the “Vmax (× 10^7)” value is given as 30.202 × 10^7 and the Relative ratio is recorded as 6.171. Also, on Thrombin (TH), the “Selectivity TH, absorbance” value is reported as 0 O.D. Moreover, on Plasmin (PL), the “Selectivity PL, absorbance” value worked out at 0.299 O.D. Also, the “Selectivity KL, absorbance” value at Kallikrein (KL) came to 0.016 O.D. Further, at Factor-Xa (FXa), the “Selectivity FXa, absorbance” value was 0.006 O.D. Besides, the “Selectivity UK, absorbance” value at Urokinase (UK) is recorded as 0.002 O.D.

Consider `Cc1ccc(C(=O)NCCCC[C@@H](N)C(=O)N[C@@H](Cc2ccccc2)C(=O)N[C@@H](CCCCN)C(=O)Nc2ccc([N+](=O)[O-])cc2)cc1` [NPN-10], for which, at plasmin (pig) [1], the “Vmax (× 10^7)” value is given as 26.218 × 10^7 and the Relative ratio was found to be 14.764. Moreover, the “Selectivity TH, absorbance” value on Thrombin (TH) was 0.001 O.D. Further, the “Selectivity PL, absorbance” value at Plasmin (PL) came to 0.335 O.D. Moreover, the “Selectivity KL, absorbance” value on Kallikrein (KL) was found to be 0.011 O.D. At Factor-Xa (FXa), the “Selectivity FXa, absorbance” value was 0.006 O.D. The “Selectivity UK, absorbance” value at Urokinase (UK) is 0.001 O.D.

As for `NCCCC[C@H](NC(=O)[C@H](Cc1ccccc1)NC(=O)[C@H](N)CCCCNS(=O)(=O)c1ccc2ccccc2c1)C(=O)Nc1ccc([N+](=O)[O-])cc1` [NPN-11], on plasmin (pig) [1], the “Vmax (× 10^7)” value is on record as 23.895 × 10^7 and the Relative ratio turned out to be 11.660. At Thrombin (TH), the “Selectivity TH, absorbance” value worked out at 0 O.D. Besides, on Plasmin (PL), the “Selectivity PL, absorbance” value is 0.171 O.D. The “Selectivity KL, absorbance” value at Kallikrein (KL) turned out to be 0.001 O.D. For the same compound, the “Selectivity FXa, absorbance” value on Factor-Xa (FXa) stood at 0.005 O.D. For the same compound, on Urokinase (UK), the “Selectivity UK, absorbance” value came out at 0.001 O.D.

Regarding `N=C(N)NCCC[C@H](NC(=O)[C@@H]1CCCCN1C(=O)[C@H](N)Cc1ccccc1)C(=O)Nc1ccc([N+](=O)[O-])cc1` [S-2238], in the test on Human Thrombin, the Km is 7 µM.

`CC(C)C[C@H](NC(=O)[C@H](N)C(C)C)C(=O)N[C@@H](CCCCN)C(=O)Nc1ccc([N+](=O)[O-])cc1` [S-2251, H-D-Val-Leu-Lys-PNA, reference compound] (HELM PEPTIDE1{[dV].L.K.[O=[N+]([O-])c1ccc(N[*:1])cc1]}$$$$V2.0): at plasmin (pig) [1], the “Vmax (× 10^-6) [mole/min/Cu]” value is given as 4.0 × 10^-6 mole/min/Cu, the “V/Km (× 10^-3)” value is 11.449 × 10^-3, the “Vmax (× 10^7)” value is reported as 39.876 × 10^7 and the Relative ratio was 1.000. For the same compound, the “Selectivity TH, absorbance” value on Thrombin (TH) worked out at 0.001 O.D. Also, the “Selectivity PL, absorbance” value on Plasmin (PL) came out at 0.306 O.D. For the same compound, the “Selectivity KL, absorbance” value on Kallikrein (KL) turned out to be 0.017 O.D. For the same compound, the “Selectivity FXa, absorbance” value on Factor-Xa (FXa) stood at 0.007 O.D. Moreover, on Urokinase (UK), the “Selectivity UK, absorbance” value worked out at 0.001 O.D. Further, the Km with Human Plasmin is 300 µM. Moreover, in test [3], the “selectivity (in words)” value is given as “comparatively good selectivity”.
